The text below walks through data of patent US11236380B2, “Methods for predicting kinase inhibitor resistance” (Research Development Foundation, priority 2017, dated 2022).

The test system of assay [1] is BTK (217-655) error-prone mutant library. Briefly: BTK error-prone library screening by FACS in presence of inhibitor. In kind it is cell-based, human. As for the experimental part: A12 polymerase, an error-prone variant of KOD polymerase, was used for amplification to generate a pool of mutants. Vector was prepared by digestion with XhoI and XbaI. PCR product and digested vector were gel extracted and drop dialyzed in ddH2O on VSWP membranes for one hour. […] Library size was estimated by colony counts from dilution series of transformed cells plated on SD-UT agar plus 100 μg/mL G418. Sanger sequencing was carried out on 15 randomly selected clones, as well as high throughput sequencing (described below) on an aliquot of the entire sample.
3×10^8 cells were washed with TBS+BSA for each library and then stained with anti-His6-FITC and anti-pY-APC for 30 minutes at 4° C. Cells were washed three times to remove unbound antibody.

Assay [2] deals with ABL kinase error-prone mutant library. Briefly: ABL error-prone library screening by FACS in presence of inhibitor. In kind it is cell-based, human. The note with it: inhibitor-treated cultures (25 μM).
Method: 5×10^7 cells were washed with TBS+BSA then stained with anti-His6-FITC and anti-pY-PE for 30 minutes at 4° C. Cells were washed three times to remove unbound antibody. Wild-type ABL with and without inhibitor was used to determine the location of the sorting gates. PE+/FITC+ cells were sorted and re-sorted, then transferred to SD-UT medium for growth at 30° C. until dense, 1-2 days depending on number of cells collected (FIG. 1B).

Consider `C=CC(=O)N1CCC[C@@H](n2nc(-c3ccc(Oc4ccccc4)cc3)c3c(N)ncnc32)C1` [Ibrutinib], for which the “fraction of APC-positive cells” value in assay [1] (400 nM Ibrutinib-treated cultures, pre-sort round 3) is on record as 40.60%; in assay [1] (400 nM Ibrutinib-treated cultures, unsorted pool), 0.7%.

As to `CC#CC(=O)N1CCC[C@H]1c1nc(-c2ccc(C(=O)Nc3ccccn3)cc2)c2c(N)nccn12` [Acalabrutinib], the “fraction of APC-positive cells” value is listed as 23.8% in assay [1] (1000 μM Acalabrutinib treated cultures, pre-sort round 3 pool) and 1.63% in assay [1] (1000 μM Acalabrutinib treated cultures, unsorted pool).

`Cc1ccc(C(=O)Nc2ccc(CN3CCN(C)CC3)c(C(F)(F)F)c2)cc1C#Cc1cnc2cccnn12` [Ponatinib]: the “fraction of PE-positive cells” value in assay [2] (pre-sort 4 pool) came to 57.9%; in assay [2] (unsorted pool) it was 0.31%.
